From paper PMC4476799, “Englerin A Agonizes the TRPC4/C5 Cation Channels to Inhibit Tumor Cell Line Proliferation” (PLoS ONE, 2015)

Columns and labels:
TRPC4 = target: T1, TRPC4 (Homo sapiens, UniProt Q9UBN4); experiment: Electrophysiology (QPatch-HT automated patch clamp, voltage ramp); type: cell-based; conditions: 10 μM ML204 + 5 μM englerin A; Dox-induced TRPC4
T1 construct: host or cells: Flp-In T-REx-293 (called HEK293T with Dox-inducible TRPC4)
T1 sequence (Q9UBN4 1-977): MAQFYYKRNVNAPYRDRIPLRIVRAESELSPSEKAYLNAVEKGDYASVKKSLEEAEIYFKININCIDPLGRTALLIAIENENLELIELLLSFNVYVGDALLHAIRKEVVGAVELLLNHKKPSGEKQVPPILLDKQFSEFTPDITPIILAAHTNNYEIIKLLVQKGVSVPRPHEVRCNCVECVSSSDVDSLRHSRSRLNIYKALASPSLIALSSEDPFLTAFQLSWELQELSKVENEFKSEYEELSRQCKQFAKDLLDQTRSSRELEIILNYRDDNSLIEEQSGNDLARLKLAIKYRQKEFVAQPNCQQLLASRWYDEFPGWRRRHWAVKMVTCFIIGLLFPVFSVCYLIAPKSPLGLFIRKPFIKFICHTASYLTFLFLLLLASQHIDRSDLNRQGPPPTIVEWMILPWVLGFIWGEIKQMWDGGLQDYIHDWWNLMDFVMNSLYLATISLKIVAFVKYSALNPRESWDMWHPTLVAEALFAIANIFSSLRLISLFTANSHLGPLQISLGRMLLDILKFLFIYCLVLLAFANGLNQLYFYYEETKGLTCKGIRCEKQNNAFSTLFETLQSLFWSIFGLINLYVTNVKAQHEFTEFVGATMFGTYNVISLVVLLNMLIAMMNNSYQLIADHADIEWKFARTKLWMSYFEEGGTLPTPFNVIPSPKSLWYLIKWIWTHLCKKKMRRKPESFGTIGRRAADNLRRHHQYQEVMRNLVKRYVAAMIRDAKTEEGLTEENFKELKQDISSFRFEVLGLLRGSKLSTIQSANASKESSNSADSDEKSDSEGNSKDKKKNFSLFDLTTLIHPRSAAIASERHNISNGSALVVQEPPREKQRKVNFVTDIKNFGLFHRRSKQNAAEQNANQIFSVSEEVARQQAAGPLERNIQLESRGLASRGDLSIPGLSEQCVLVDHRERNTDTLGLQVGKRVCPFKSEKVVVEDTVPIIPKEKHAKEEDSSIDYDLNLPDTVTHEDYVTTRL
Method: TRPC4 currents were recorded from HEK293T cells with Dox-inducible TRPC4 on the QPatch-HT automated patch clamp system at room temperature (21–24°C) (Biolin Scientific, Stockholm, Sweden). The internal solution contained (in mM): 150 Cs-aspartate, 2 MgCl2, 0.36 CaCl2, 1 EGTA, 4 MgATP, 0.3 NaGTP and 10 HEPES, pH = 7.20 with CsOH (calculated free [Ca^2+] = 100 nM using WebMaxChelator http://www.stanford.edu/~cpatton/maxc.html, assuming an ionic strength of 0.16). The standard external solution contained (in mM): 150 NaCl, 4 KCl, 2 CaCl2, 1 MgCl2, 10 HEPES and 10 D-glucose (pH = 7.40) with NaOH. Currents were elicited by a voltage ramp protocol consisting of a 50 ms step to −100 mV, followed by a 200 ms ramp to +100 mV and 10 ms at +100 mV. Voltage ramps were applied every 10 s from a holding potential of 0 mV. Results were expressed as means ± S.E.M.

A-673 cells = type: cell-based
Method: Cell viability was measured 48 hours later using Cell Titer-Glo.

Question: Which results are given for `Cc1cc(N2CCCCC2)nc2ccccc12` [ML204]?
Answer: effect on englerin A induced inward and outward currents (TRPC4): inhibited; doses of ML204 alone at which A-673 cell growth is impaired (A-673 cells): higher than 50 μM; rescue of growth inhibition by englerin A (A-673 cells; 50 μM ML204 with 50 nM englerin A, A-673 cells): partially rescued
